{
  "source": "paper PMC12328707",
  "about": "“Potassium binding by carbonyl clusters, halophilic adaptation and catalysis of Haloferax mediterranei D-2-hydroxyacid dehydrogenase” (Communications Biology, 2025)",
  "target": "T1, D2HDH (Haloferax mediterranei, UniProt Q2VEQ7)",
  "T1 construct": "gene ddh; homodimer (~66 kDa; 79 kDa by gel filtration); residues 1-308; no tag mentioned",
  "T1 sequence (Q2VEQ7 whole entry, the tested form may be a part)": "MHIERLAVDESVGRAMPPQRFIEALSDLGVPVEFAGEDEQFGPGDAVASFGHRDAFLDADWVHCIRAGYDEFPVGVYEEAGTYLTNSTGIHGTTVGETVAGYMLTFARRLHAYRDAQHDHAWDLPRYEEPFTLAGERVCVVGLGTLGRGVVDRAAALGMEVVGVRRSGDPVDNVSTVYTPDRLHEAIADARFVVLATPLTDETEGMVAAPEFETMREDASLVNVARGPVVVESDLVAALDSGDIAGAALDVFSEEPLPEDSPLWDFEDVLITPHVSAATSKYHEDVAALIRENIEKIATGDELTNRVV",
  "experiment": "X-ray crystal structure, […] Å",
  "format": "binding",
  "conditions": "formed by turnover in the crystallisation drop; NADP+ bound; modelled in subunit B as 2:1 mixture of 2-ketohexanoic acid and hydroxy acid",
  "data": [
    {"compound": "CCCC[C@@H](O)C(=O)O", "note": "[D-2-hydroxyhexanoic acid]", "values": [
      {"measurement": "X-ray crystal structure, 1.57 Å", "result": "D-2-hydroxyhexanoic acid (beige carbons) bound to the active site of the D2HDH/NADP^+ complex"}
    ]}
  ]
}
